Data taken from the NIST ThermoML archive (doi:10.1016/j.jct.2009.02.007).

Tests used:
[1] = xn = mol fraction of the nth substance listed; details: 101 kPa, Liquid, Vibrating tube method
[2] = 101.33 kPa, Liquid, Vibrating tube method

O=Cc1ccccc1 [benzaldehyde] + CCCCn1cc[n+](C)c1.F[B-](F)(F)F
mass density [kg/m3], [1]
Details | x2 = 0.1001 | x2 = 0.1998 | x2 = 0.2997 | x2 = 0.4 | x2 = 0.4999 | x2 = 0.5998 | x2 = 0.6999 | x2 = 0.7971 | x2 = 0.8991
298.15 K | 1078.64 | 1105.45 | 1127.3 | 1145.56 | 1160.76 | 1173.77 | 1184.7 | 1193.8 | 1202.44
303.15 K | 1072.78 | 1098.6 | 1119.46 | 1136.76 | 1151.14 | 1163.4 | 1173.86 | 1182.59 | 1190.51
308.15 K | 1068.6 | 1094.81 | 1116.11 | 1133.67 | 1148.32 | 1160.74 | 1171.52 | 1180.59 | 1188.53
313.15 K | 1064.7 | 1090.93 | 1112.3 | 1129.92 | 1144.5 | 1156.92 | 1167.64 | 1176.6 | 1184.48

O=Cc1ccccc1 [benzaldehyde]
[2]
Details | mass density [kg/m3]
298.15 K | 1044.2
303.15 K | 1040.21
308.15 K | 1036.15
313.15 K | 1032.15

CCCCn1cc[n+](C)c1.F[B-](F)(F)F [1-butyl-3-methylimidazolium tetrafluoroborate]
[2]
Details | mass density [kg/m3]
298.15 K | 1211.03
303.15 K | 1197.45
308.15 K | 1194.6
313.15 K | 1190.44
